pKi: −log10 of the molar value.
Key:
[1] = molecular target: Carbonic anhydrase 9 (Homo sapiens, UniProt Q16790)
Description: Inhibition of recombinant human carbonic anhydrase 9 preincubated with enzyme for 10 mins by phenol red dye based stopped flow CO2 hydration assay

[2] = molecular target: Carbonic anhydrase 1 (Homo sapiens, UniProt P00915); experiment: Inhibition of recombinant human carbonic anhydrase 1 preincubated with enzyme for 10 mins by phenol red dye based stopped flow CO2 hydration assay
[3] = molecular target: Carbonic anhydrase 2 (Homo sapiens, UniProt P00918); experiment: Inhibition of recombinant human carbonic anhydrase 2 preincubated with enzyme for 10 mins by phenol red dye based stopped flow CO2 hydration assay

Carbonic anhydrase 1, sequence (P00915 whole entry): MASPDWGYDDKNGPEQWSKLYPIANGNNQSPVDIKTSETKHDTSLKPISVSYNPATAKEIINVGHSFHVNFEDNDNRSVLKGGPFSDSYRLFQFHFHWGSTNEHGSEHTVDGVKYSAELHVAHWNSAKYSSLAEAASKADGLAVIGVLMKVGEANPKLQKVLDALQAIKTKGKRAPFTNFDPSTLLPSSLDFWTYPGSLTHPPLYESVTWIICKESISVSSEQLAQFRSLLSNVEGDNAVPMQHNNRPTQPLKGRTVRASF

NS(=O)(=O)c1ccc(-c2ccc(Cc3ccccc3C(=O)O)cc2)cc1
pKi [1]: 6.36
pKi [2]: 8.17
pKi [3]: 9.16

Nc1cccc(C(O)c2ccc(-c3ccc(S(N)(=O)=O)cc3)cc2)c1 (stereo not drawn)
pKi [1]: 6.33
pKi [2]: 7.48
pKi [3]: 9.11

NS(=O)(=O)c1ccc(-c2ccc(Cc3cccc(C(=O)O)c3)cc2)cc1
pKi [1]: 6.49
pKi [2]: 7.67
pKi [3]: 9.24

NS(=O)(=O)c1ccc(-c2ccc(C3OC(=O)c4ccccc43)cc2)cc1 (stereo not drawn)
pKi [1]: 6.60
pKi [2]: 7.10
pKi [3]: 9.15

NS(=O)(=O)c1ccc(-c2ccc(C(O)c3cccc(C(=O)O)c3)cc2)cc1 (stereo not drawn)
pKi [1]: 7.05
pKi [2]: 8.16
pKi [3]: 9.08

Nc1ccccc1C(=O)c1ccc(-c2ccc(S(N)(=O)=O)cc2)cc1
pKi [1]: 6.54
pKi [2]: 6.66
pKi [3]: 7.51

NS(=O)(=O)c1ccc(-c2ccc(C(=O)c3cccc(C(=O)O)c3)cc2)cc1
pKi [1]: 6.31
pKi [2]: 8.14
pKi [3]: 9.03

Nc1cccc(Cc2ccc(-c3ccc(S(N)(=O)=O)cc3)cc2)c1
pKi [1]: 6.26
pKi [2]: 8.23
pKi [3]: 9.04

Nc1ccccc1C(O)c1ccc(-c2ccc(S(N)(=O)=O)cc2)cc1 (stereo not drawn)
pKi [1]: 7.04
pKi [2]: 8.08
pKi [3]: 9.01

Nc1cccc(C(=O)c2ccc(-c3ccc(S(N)(=O)=O)cc3)cc2)c1
pKi [1]: 6.58
pKi [2]: 7.06
pKi [3]: 8.01

NS(=O)(=O)c1ccc(-c2ccc(C(=O)c3ccccc3C(=O)O)cc2)cc1
pKi [1]: 6.33
pKi [2]: 7.40
pKi [3]: 9.08
